Read-outs that look alike come from different tables or passages of the source.
Experiment: Fasting single dose PK study in dogs: plasma ondansetron after intravenous bolus of marketed ondansetron injection (reference)
Format: in vivo
Conditions: fasted male Beagle dogs; for C0: 2 mg/mL solution; for Vd: read-out: Vss
Method: Male Beagle dogs were fasted are divided into six groups as G1, G2, G3, G4, G5 and G6 each consisting of four dogs.
Blood samples were collected from each IM route dogs at 0 (pre-dose), 0.5, 1, 2, 4, 8, 16, 24, 36, 48, 72, 96, 120, 144, 168 and 240 h post-dose; for IV route dogs, blood samples were collected at 0 (pre-dose), 0.167, 0.33, 0.5, 0.75, 1, 2, 4, 8, 12 and 24 h post-dose and analysed for ondansetron in plasma and calculated using the noncompartmental analysis tool of the validated Phoenix WinNonlin software (Version 8.0). The summary of plasma pharmacokinetics parameters of ondansetron for G1 and G2 animals is summarized in Table—2 (FIGS. 1, 2) and G3, G4, G5 and G6 (FIGS. 3, 4, 5 and 6) animals is summarized in Table— 3.

- C0 (G1, IV bolus 4 mg/dog): 110 ng/mL
- AUC(0-inf) (G1, IV bolus 4 mg/dog): 107 ng·h/mL
- AUC(0-t) (G1, IV bolus 4 mg/dog): 106 ng·h/mL
- MRT last (G1, IV bolus 4 mg/dog): 1.12 h
- clearance (G1, IV bolus 4 mg/dog): 644 mL/min
- half-life (G1, IV bolus 4 mg/dog): 0.878 h
- Vd (G1, IV bolus 4 mg/dog): 40.3 L
- C0 (G2, IV bolus 24 mg/dog): 828 ng/mL
- AUC(0-inf) (G2, IV bolus 24 mg/dog): 716 ng·h/mL
- AUC(0-t) (G2, IV bolus 24 mg/dog): 715 ng·h/mL
- MRT last (G2, IV bolus 24 mg/dog): 1.17 h
- clearance (G2, IV bolus 24 mg/dog): 563 mL/min
- half-life (G2, IV bolus 24 mg/dog): 1.28 h
- Vd (G2, IV bolus 24 mg/dog): 36.3 L
Structure (SMILES): Cc1nccn1CC1CCc2c(c3ccccc3n2C)C1=O (centres unmarked) [Ondansetron]

Source: US12508247B2, “Controlled release injectable ondansetron formulations” (SHILPA MEDICARE LIMITED, priority 2019, dated 2025)
